From patent US20080058409A1, “Esterified Catechins, Processes for Producing the Same, and Foods and Beverages as well as Cosmetics Containing Such Esterified Catechins” (priority 2005, published 2008)

Experiments:
[1] = test system: Alicyclobacillus acidoterrestris; assay: Assay of antibacterial activity (growth inhibition) against heat-resistant acidophilic spore-forming bacterium Alicyclobacillus acidoterrestris; assay type: cell-based; conditions: culture temperature 45° C., liquid medium (yeast extract, soluble starch, glucose) adjusted to pH 3.8
Protocol: (§1) Into each well, 50 μl of a nutrient broth (pH 7.0, NISSUI PHARMACEUTICAL CO., LTD.) was added and cultured overnight at 37° C. The light absorbance at 690 nm was measured both at the start and end of the culture by means of a micro-plate reader (Thermolab Systems, Finland). Based on the percent growth inhibition calculated from the following formula, a distribution diagram was constructed plotting percent inhibition and sample concentration on the two axes and the 50% inhibition (IC50) of the spore forming bacterium by the substances of the present invention was determined. Percent growth inhibition (%)=100×{Δ690 (not added)−Δ690 (sample added)}/Δ690 (not added) where Δ690 (not added) refers to the difference between the 690 nm values in the “not-added” group before and after the culture and Δ690 (sample added) refers to the difference between the 690 nm values in the “sample-added” group before and after the culture.
Activity against the heat-resistant acidophilic spore-forming bacterium Alicyclobacillus acidoterrestris was determined by taking the same procedure, except that a change was made in two points, the culture temperature condition and the type of liquid medium [culture temperature: 45° C.; liquid medium: 0.4% dry yeast extract (Difco Laboratories), 0.4% soluble starch (nacalai tesque), 1% glucose (nacalai tesque), adjusted to pH 3.8 with 1 N sulfuric acid].

[2] = test system: Bacillus subtilis spores; assay: Assay of antibacterial activity (growth inhibition, absorbance at 690 nm) against Bacillus subtilis spores; assay type: cell-based; conditions: spores 1×10^7/ml, nutrient broth pH 7.0, cultured overnight at 37° C., percent growth inhibition from absorbance at 690 nm
Protocol: as §1

| Compound | IC50 (ppm) A. acidoterrestris [1] | IC50 (ppm) B. subtilis [2] |
| --- | --- | --- |
| CCCCCCCC(=O)Oc1cc(O)cc2c1C[C@H](OC(=O)CCCCCCC)[C@@H](c1ccc(O)c(O)c1)O2 [3,5-di-O-octanoyl-(+)-D-catechin] | 50-100 ppm | 100-200 ppm |
| 3′(or 4′),3-di-O-octanoyl-(+)-D-catechin | 6.25-12.5 ppm | 3.125-6.25 ppm |
| Catechin [reference compound] | 50-100 ppm | >400 ppm |
| 3′(or 4′),7-di-O-octanoyl-(+)-D-catechin | 50-100 ppm | 6.25-12.5 ppm |
| CCCCCCCC(=O)Oc1cc(O)c2c(c1)O[C@H](c1ccc(O)c(O)c1)[C@@H](OC(=O)CCCCCCC)C2 [3,7-di-O-octanoyl-(+)-D-catechin] | 12.5-25 ppm | 25-50 ppm |
| CCCCCCCC(=O)Oc1ccc([C@H]2Oc3cc(O)cc(O)c3C[C@@H]2O)cc1OC(=O)CCCCCCC [3′4′-O-dioctanoyl-(+)-D-catechin] | 12.5-25 ppm | >400 ppm |
| Sucrose fatty acid ester [reference compound] | 100-200 ppm | 50-100 ppm |
| 3′(or 4′),5-di-O-octanoyl-(+)-D-catechin | 6.25-12.5 ppm | 6.25-12.5 ppm |
| 3′-O-cotanoyl and 4′-octanoyl-(+)-D-catechin | 25-50 ppm | 200-400 ppm |
| CCCCCCCC(=O)Oc1cc(OC(=O)CCCCCCC)c2c(c1)O[C@H](c1ccc(O)c(O)c1)[C@@H](O)C2 [5,7-di-O-octanoyl-(+)-D-catechin] | 100-200 ppm | >400 ppm |
